Measured values published in article PMC7049299, “UGT74AF3 enzymes specifically catalyze the glucosylation of 4-hydroxy-2,5-dimethylfuran-3(2H)-one, an important volatile compound in Camellia sinensis” (Horticulture Research, 2020).

Experiments:
UGT74AF3b [1] = target: T1, UGT74AF3b (Camellia sinensis, UniProt A0A4S4DWR1); experiment: glucosyltransferase kinetics (UDP-Glo assay / LC-MS; readout for kinetics not told); type: biochemical; details: optimized conditions (optimum pH 8.5, 30 °C); sugar donor not stated for kinetics, presumably UDP-glucose
T1 construct: gene TEA_014443; full-length, N-terminal GST tag (pGEX-4T-1), E. coli BL21(DE3) pLysS, GST-resin purified; Ala at residue 456
Description: glucosyltransferase kinetics (UDP-Glo assay / LC-MS; readout for kinetics not told) on UGT74AF3b

UGT74AF3b [2] = target: T1, UGT74AF3b; experiment: relative glycosyltransferase activity; type: biochemical; details: UDP-Glc, UDP-Gal or UDP-GA as sugar donor

T1 sequence (A0A4S4DWR1 entry or part of it): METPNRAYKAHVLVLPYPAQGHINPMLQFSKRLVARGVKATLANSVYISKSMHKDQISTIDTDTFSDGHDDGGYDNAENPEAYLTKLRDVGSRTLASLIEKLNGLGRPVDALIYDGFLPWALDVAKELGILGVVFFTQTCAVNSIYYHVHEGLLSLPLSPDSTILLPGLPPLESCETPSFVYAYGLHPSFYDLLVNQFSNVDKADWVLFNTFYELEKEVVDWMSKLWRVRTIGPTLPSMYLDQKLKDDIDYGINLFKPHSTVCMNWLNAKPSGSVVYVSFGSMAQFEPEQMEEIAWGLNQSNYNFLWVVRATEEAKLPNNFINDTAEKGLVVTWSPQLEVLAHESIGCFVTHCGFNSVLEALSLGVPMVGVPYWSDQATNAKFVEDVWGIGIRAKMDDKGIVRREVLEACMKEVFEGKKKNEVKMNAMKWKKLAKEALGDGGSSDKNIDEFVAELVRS

SMILES: CC1=C(O)C(=O)C(C)O1 (centres unmarked) [HDMF, 4-Hydroxy-2,5-dimethylfuran-3(2H)-one]
- Km (UGT74AF3b [1]): 5.14 ± 1.58 µM
- relative enzymatic activity (UGT74AF3b [2]): The A456V mutant exhibited enhanced glucosylation activity toward HDMF, EHMF, and HMF
